Laboratory results taken from ChEMBL document CHEMBL4483862, “Open-source discovery of chemical leads for next-generation chemoprotective antimalarials” (2018).

System: Plasmodium berghei
Assay: Luciferase/luciferin-expressing antifolate-resistant parasites were used to infect a culture of HepG2 cells that were pre-incubated with compounds. Infected hepatocytes emit light due to the luciferase reaction. Assay results are presented as the percent inhibition of light emission compared to control. […]
Assay type: functional
Settings: sporozoite; for IC90: read-out: LUCIFERASE INFECTION ASSAY - IC90
[1] = read-out: LUCIFERASE INFECTION ASSAY - IC50

Compound | IC50 [1] | IC90 | further results
Oc1ccccc1Nc1nc(NCc2ccccc2)c2ccccc2n1 | 2.58 µM | > 8.71 µM | –
CC1CC(NC(=O)c2cc3c(=O)n4ccccc4nc3n2C)CC(C)(C)C1 (configuration not stated) | – | 2.74 µM | IC50 (PBLUC_HILL_SLOPE 172, PBLUC_R_SQUARED 0.0501, read-out: LUCIFERASE INFECTION ASSAY - IC50): 2.7 µM
NC(Cc1ccc(F)cc1)c1csc(Nc2ccc(C(F)(F)F)cn2)n1 (configuration not stated) | – | 5.98 µM | IC50 (PBLUC_HILL_SLOPE 202, PBLUC_R_SQUARED 0.785, read-out: LUCIFERASE INFECTION ASSAY - IC50): 5.91 µM
NC(c1csc(Nc2nccc(C(F)(F)F)n2)n1)C1CCCCC1 (configuration not stated) | 2.8 µM | 3.66 µM | –
COc1cccc(Nc2nc(C(N)Cc3ccc(C(F)(F)F)cc3)cs2)n1 (configuration not stated) | – | 3.58 µM | IC50 (PBLUC_HILL_SLOPE 179, PBLUC_R_SQUARED 0.233, read-out: LUCIFERASE INFECTION ASSAY - IC50): 3.53 µM
C=CCNc1nc(Nc2ccc(OC)c(OC)c2)c2sc(-c3ccccc3)cc2n1 | 3.61 µM | > 7.88 µM | –
CCNC(=O)C1CCCN(C(=O)c2c(-c3ccccc3)noc2C)CC1 (configuration not stated) | > 9.28 µM | > 9.28 µM | –
CCNC(=O)C1CCCN(Cc2cc(C(F)(F)F)ccc2Cl)CC1 (configuration not stated) | – | 3.4 µM | IC50 (PBLUC_HILL_SLOPE 383, PBLUC_R_SQUARED 0.415, read-out: LUCIFERASE INFECTION ASSAY - IC50): 3.38 µM
c1csc(-c2cnc3sc(NCC4CCOCC4)nn23)c1 | > 10.3 µM | > 10.3 µM | –
CN(C)c1cccc(-c2cnc3sc(NCc4ccncc4)nn23)c1 | > 9.42 µM | > 9.42 µM | –
COc1ccc(-c2cnc3sc(NCCc4ccc(S(N)(=O)=O)cc4)nn23)cn1 | > 7.67 µM | > 7.67 µM | –
Cc1ccc(CNc2nc(NCc3cccs3)nc3ccsc23)c(C)c1 | – | 1.63 µM | IC50 (PBLUC_HILL_SLOPE 356, PBLUC_R_SQUARED 0.443, read-out: LUCIFERASE INFECTION ASSAY - IC50): 1.62 µM
CN(C)c1cccc(-c2cnc3sc(NCCc4ccncc4)nn23)c1 | > 9.05 µM | > 9.05 µM | –
CN(C)c1ccccc1-c1cnc2sc(NC3CCC(O)CC3)nn12 (configuration not stated) | 8.17 µM | > 9.23 µM | –
Cc1nc(-c2cccc(NC(=O)c3ccc(OC(F)F)cc3)c2)[nH]c1C | – | 2.68 µM | IC50 (PBLUC_HILL_SLOPE 207, PBLUC_R_SQUARED 0.671, read-out: LUCIFERASE INFECTION ASSAY - IC50): 2.66 µM
Cc1ccc(C)c(-c2csc(NC(=O)CCNC(=O)c3ccsc3)n2)c1 | – | 5.37 µM | IC50 (PBLUC_HILL_SLOPE 433, PBLUC_R_SQUARED 0.479, read-out: LUCIFERASE INFECTION ASSAY - IC50): 5.35 µM
CC(=O)NCCC(=O)N(Cc1ccccc1)c1nc2c(C(C)C)cccc2s1 | – | 6.02 µM | IC50 (PBLUC_HILL_SLOPE 286, PBLUC_R_SQUARED 0.442, read-out: LUCIFERASE INFECTION ASSAY - IC50): 5.98 µM
CN(C)CCNC(=O)c1ccc(-c2cc(-c3cc4ccccc4s3)cnc2N)cc1 | > 7.92 µM | > 7.92 µM | –
O=C1NCCN1CCNc1nn2c(-c3cccc(OC(F)(F)F)c3)cnc2s1 | > 8 µM | > 8 µM | –
CNc1nc(NCc2cccc(OC)c2)c2sc(-c3ccccc3)cc2n1 | > 8.77 µM | > 8.77 µM | –
COc1ccc2c(C)cc3nnc(SCCOc4ccccc4F)n3c2c1 | – | 5.11 µM | IC50 (PBLUC_HILL_SLOPE 752, PBLUC_R_SQUARED 0.219, read-out: LUCIFERASE INFECTION ASSAY - IC50): 5.09 µM
NC(c1csc(Nc2cc(NCc3ccco3)ncn2)n1)C1CCCCC1 (configuration not stated) | > 8.58 µM | > 8.58 µM | –
COc1cc(-c2cncc(Nc3cccc(C(F)(F)F)c3)n2)cc(OC)c1OC | 4.6 µM | > 8.14 µM | –
CCN(CC)CCNC(=O)c1ccc(Nc2ccn3nc(-c4ccc(Cl)cc4)cc3n2)cc1 | > 7.13 µM | > 7.13 µM | –

Compound | IC50 [1] | IC90 | further results
c1ccc(CCNc2nn3c(-c4ccsc4)cnc3s2)nc1 | > 10.1 µM | > 10.1 µM | –
COc1ccc(-c2cnc3sc(NCCc4ccncc4)nn23)cn1 | > 9.36 µM | > 9.36 µM | –
CC(=O)Nc1cnc(-c2ccccc2N(C)C)cn1 | > 12.9 µM | > 12.9 µM | –
Cc1cccc2sc(N(Cc3ccccc3)C(=O)CN3CCN(CC(=O)N4CCCC4)CC3)nc12 | – | 6.71 µM | IC50 (PBLUC_HILL_SLOPE 173, PBLUC_R_SQUARED 0.447, read-out: LUCIFERASE INFECTION ASSAY - IC50): 6.63 µM
COc1ccc(-c2cncc(-c3ccc(N)cc3)n2)cc1 | 7.82 µM | 11.7 µM | –
CC(=O)Nc1ccc(-c2cnc3ccc(-c4cccnc4)nn23)cc1 | 0.572 µM | 1.22 µM | –
Clc1ccc(-c2cnc3sc(NCCc4ccncc4)nn23)cc1 | > 9.27 µM | > 9.27 µM | –
CCc1sc(C(=O)Nc2ccc(F)c(Cl)c2)cc1C | – | 8.57 µM | IC50 (PBLUC_HILL_SLOPE 228, PBLUC_R_SQUARED 0.104, read-out: LUCIFERASE INFECTION ASSAY - IC50): 8.49 µM
CN(C)CCN1CCN(c2cccc(-c3ccc(-c4ccccc4)cc3)n2)CC1 | 5.35 µM | > 8.54 µM | –
OC1CCC(Nc2nn3c(-c4ccc5ccccc5c4)cnc3s2)CC1 (configuration not stated) | > 9.05 µM | > 9.05 µM | –
CSc1nc(=O)nc(-c2ccc(Cl)cc2)[nH]1 | > 13 µM | > 13 µM | –
OCCCNc1nn2c(-c3ccccc3Cl)cnc2s1 | > 10.7 µM | > 10.7 µM | –
CC(C)c1ccc(-c2cnc3sc(NCc4cccnc4)nn23)cc1 | > 9.44 µM | > 9.44 µM | –
Cc1cccc(Nc2cc3[nH]c(-c4ccc(C(=O)N(C)C)cc4)cc3cn2)c1 | 6.24 µM | > 10 µM | –
CC(C)C(N)c1csc(NC(=O)c2cc(C(C)(C)C)nn2Cc2ccccc2)n1 (configuration not stated) | – | 3.46 µM | IC50 (PBLUC_HILL_SLOPE 594, PBLUC_R_SQUARED 0.291, read-out: LUCIFERASE INFECTION ASSAY - IC50): 3.45 µM
COc1ccc(-c2cnc3sc(NCCc4ccccn4)nn23)cn1 | > 9.36 µM | > 9.36 µM | –
O=C(Nc1ccc(OC(F)(F)F)cc1)Nc1ccc2nc(-c3ccco3)nn2c1 | – | 7.51 µM | IC50 (PBLUC_HILL_SLOPE 672, PBLUC_R_SQUARED 0.263, read-out: LUCIFERASE INFECTION ASSAY - IC50): 7.48 µM
CC(C)(C)c1cc(=O)n(-c2nc3ccc(Cl)cc3s2)[nH]1 | > 10.7 µM | > 10.7 µM | –
CC(C)c1ccc(-c2cnc3sc(NCCCO)nn23)cc1 | > 10.4 µM | > 10.4 µM | –
CC(C)CC(N)c1csc(NC(=O)Nc2ccc(F)c(Cl)c2)n1 (configuration not stated) | > 9.25 µM | > 9.25 µM | –
CC(C)(C)OC(=O)N[C@@H](Cc1ccccc1)c1n[nH]c(=S)n1CC1CCCO1 (some centres not stated) | > 8.16 µM | > 8.16 µM | –
Cc1cc(NC(=O)c2cc(C(C)(C)C)oc2C)nc(C)n1 | > 11.5 µM | > 11.5 µM | –
c1ccc(-c2cnc3sc(NCCc4ccncc4)nn23)cc1 | > 10.3 µM | > 10.3 µM | –
O=C(Nc1cccc(F)c1)Nc1ccc2nc(-c3cccs3)nn2c1 | – | 4.34 µM | IC50 (PBLUC_HILL_SLOPE 208, PBLUC_R_SQUARED 0.19, read-out: LUCIFERASE INFECTION ASSAY - IC50): 4.29 µM

Compound | IC50 [1] | IC90 | further results
COc1cc(OC)cc(C(=O)Nc2nc(C(N)C3CCCCC3)cs2)c1 (configuration not stated) | 5.25 µM | 5.41 µM | –
O=C(CN1CSCC1=O)Nc1nc2ccccc2[nH]1 | > 10 µM | > 10 µM | –
CN(C)c1cccc(-c2cnc3sc(NCc4cccnc4)nn23)c1 | > 9.42 µM | > 9.42 µM | –
CC(C)c1ccc2c(c1)/C(=N/NC(=O)c1ccccc1F)C(=O)N2 | – | 0.084 µM | IC50 (PBLUC_HILL_SLOPE 280, PBLUC_R_SQUARED 0.522, read-out: LUCIFERASE INFECTION ASSAY - IC50): 0.0833 µM
CN(C)c1cccc(-c2cnc3sc(NCCCO)nn23)c1 | > 10.4 µM | > 10.4 µM | –
OC1CCC(Nc2nn3c(-c4ccc(F)c(Cl)c4)cnc3s2)CC1 (configuration not stated) | > 9 µM | > 9 µM | –
FC(F)(F)c1cccc(-c2cnc3sc(NCCc4ccncc4)nn23)c1 | > 8.47 µM | > 8.47 µM | –
OCCCNc1nn2c(-c3cccc(F)c3)cnc2s1 | > 11.3 µM | > 11.3 µM | –
COc1ccc(N2C(=N)C(c3nc4ccccc4s3)C(=O)C2c2ccccc2)cc1 (configuration not stated) | – | 4.06 µM | IC50 (PBLUC_HILL_SLOPE 428, PBLUC_R_SQUARED 0.387, read-out: LUCIFERASE INFECTION ASSAY - IC50): 4.04 µM
Cc1noc(C)c1S(=O)(=O)N(C)Cc1ccc(-c2ccc(Cl)cc2)o1 | > 10 µM | > 10 µM | –
CCCCn1c(C(C)Oc2ccc(Cl)cc2Cl)nc2cc(S(N)(=O)=O)ccc21 (configuration not stated) | 0.233 µM | 0.529 µM | –
CC(=O)Nc1ccc(C2NC(=O)NC(c3ccccc3)=C2c2nc3ccccc3s2)cc1 (configuration not stated) | > 10 µM | > 10 µM | –
O=C(NCCNc1ccnc2cc(Cl)ccc12)c1ccccc1F | 2.31 µM | 8.82 µM | –
O=C(Nc1cc(C(F)(F)F)cc(C(F)(F)F)c1)Nc1cc(C(F)(F)F)cc(C(F)(F)F)c1 | > 6.81 µM | > 6.81 µM | –
O=C(CN1CCN(C(C(=O)Nc2cc(C(F)(F)F)ccc2Cl)c2ccccc2)CC1)NC1CC1 (configuration not stated) | 9.79 µM | > 10 µM | –
Oc1c(C(Nc2nc3ccccc3s2)c2ccc(OC(F)F)cc2)ccc2cccnc12 (configuration not stated) | 5.55 µM | > 10 µM | –
CC1(C)N=C(N)N=C(N)N1c1ccc([N+](=O)[O-])cc1 | > 10 µM | > 10 µM | –
C=CCNC(=S)N1CCc2c([nH]c3ccccc23)C1C(F)(F)F (configuration not stated) | > 9.72 µM | > 9.72 µM | –
CCN(CC)S(=O)(=O)c1ccc(C(=O)c2c(C)c(C(=O)C(F)(F)F)c3ccccn23)cc1 | > 10 µM | > 10 µM | –
FC(F)(F)c1ccccc1NC(=S)N1CCCN(c2nc3ccc(Cl)cc3s2)CC1 | 2.32 µM | 2.54 µM | –
COc1ccc(Nc2ccnc3cc(Cl)ccc23)cc1OC | 7.03 µM | > 10 µM | –
CC(C)CCNCC(O)CON=C1c2ccccc2-c2ccccc21 (configuration not stated) | > 10 µM | > 10 µM | –
CCc1cc2c(Sc3nnc(N)s3)ncnc2s1 | > 11.2 µM | > 11.2 µM | –
